Assay results from ChEMBL document CHEMBL1136258, “Design, synthesis and antifungal activity of a novel water soluble prodrug of antifungal triazole” (Bioorg Med Chem Lett, 2003).
Several values for one entry are separate records, joined by “and”; a condition that tells them apart may be missing. Identical values can stand only once. Blank lines part the entries; values can stand above or below the molecule they belong to.

Tests used:
[1] = Solubility in water; type: physicochemical
[2] = Half life in human plasma; type: ADME, cell-free
[3] = (§1) Half life in rat plasma; type: ADME; details: plasma
[4] = species on record: Rattus norvegicus; assay: as §1; type: ADME
[5] = Half life in monkey plasma; type: ADME, cell-free; details: cercopithecidae
[6] = system: Rattus norvegicus; assay: Efficacy against Candida tropicalis CY5042 on day 14th after intravenous administration in rat; type: functional
[7] = system: Rattus norvegicus; assay: Efficacy against Candida albicans CY1002 on day 14th after intravenous administration in rat; type: functional
[8] = system: Rattus norvegicus; assay: Efficacy against Candida albicans CY1002 on day 14th after peroral administration in rat; type: functional; details: po
[9] = system: Rattus norvegicus; assay: Efficacy against […] CY1003 on day 14th after intravenous administration in rat; type: functional
[10] = Half life in monkey plasma; Not detected; type: ADME, cell-free; details: cercopithecidae
[11] = Half life in human plasma; Not detected; type: ADME, cell-free
[12] = system: Rattus norvegicus; assay: Efficacy against […] CF924390 on day 14th after peroral administration in rat; type: functional
[13] = system: Rattus norvegicus; assay: Efficacy against Candida tropicalis CY5042 on day 14th after peroral administration in rat; type: functional; details: po
[14] = system: Rattus norvegicus; assay: Efficacy against […] CF924390 on day 14th after intravenous administration in rat; type: functional
[15] = species on record: Rattus norvegicus; assay: Half life in rat plasma; Not detected; type: ADME
[16] = system: Rattus norvegicus; assay: Efficacy against Candida albicans CY3003 on day 14th after peroral administration in rat; type: functional; details: po
[17] = system: Rattus norvegicus; assay: Efficacy against […] CY1003 on day 14th after peroral administration in rat; type: functional; details: po
[18] = system: Rattus norvegicus; assay: Efficacy against Candida albicans CY3003 on day 14th after intravenous administration in rat; type: functional

- solubility [1]: 1000 µg/mL
SMILES: CC(=O)OCc1ccccc1N(C)C(=O)OC[n+]1cnn(C[C@](O)(c2cc(F)ccc2F)[C@@H](C)c2nc(-c3ccc(C#N)cc3)cs2)c1.[Cl-]

- solubility [1]: > 10000 µg/mL
SMILES: CNCC(=O)OCc1cc(F)ccc1N(C)C(=O)OC(C)[n+]1cnn(C[C@](O)(c2cc(F)ccc2F)[C@@H](C)c2nc(-c3ccc(C#N)cc3)cs2)c1.[Cl-] (stereo partly drawn)

- solubility [1]: > 10000 µg/mL
- half-life [2]: 2 min
- half-life [3]: < 2 min
- T1/2 [4]: 3 min
- T1/2 [5]: 3 min
- half-life [5]: 2 min
SMILES: CNCC(=O)OCc1c(F)cccc1N(C)C(=O)OC(C)[n+]1cnn(C[C@](O)(c2cc(F)ccc2F)[C@@H](C)c2nc(-c3ccc(C#N)cc3)cs2)c1.[Cl-] (stereo partly drawn)

- solubility [1]: < 1000 µg/mL
SMILES: CC(=O)OCCN(C)C(=O)OC[n+]1cnn(C[C@](O)(c2cc(F)ccc2F)[C@@H](C)c2nc(-c3ccc(C#N)cc3)cs2)c1.[I-]

- solubility [1]: < 1000 µg/mL
SMILES: CC(=O)OC[C@@H]1CCCN1C(=O)OC[n+]1cnn(C[C@](O)(c2cc(F)ccc2F)[C@@H](C)c2nc(-c3ccc(C#N)cc3)cs2)c1.[I-]

- solubility [1]: > 10000 µg/mL
- T1/2 [2]: 8 min
- half-life [2]: 6 min
- T1/2 [4]: < 2 min and 5 min
- half-life [5]: 6 min
SMILES: CNCC(=O)OCc1cc(F)c(F)cc1N(C)C(=O)OC(C)[n+]1cnn(C[C@](O)(c2cc(F)ccc2F)[C@@H](C)c2nc(-c3ccc(C#N)cc3)cs2)c1.[Cl-] (stereo partly drawn)

- solubility [1]: < 1000 µg/mL
- half-life [3]: 1740 min
SMILES: C[C@@H](c1nc(-c2ccc(C#N)cc2)cs1)[C@](O)(Cn1c[n+](COC(=O)N(C)c2ccccc2)cn1)c1cc(F)ccc1F.[Cl-]

Continued, molecule first:

SMILES: CC(=O)OCCCN(C)C(=O)OC[n+]1cnn(C[C@](O)(c2cc(F)ccc2F)[C@@H](C)c2nc(-c3ccc(C#N)cc3)cs2)c1.[I-]
- solubility [1]: < 1000 µg/mL

SMILES: CNCC(=O)OCc1cccnc1N(C)C(=O)OC(C)[n+]1cnn(C[C@](O)(c2cc(F)ccc2F)[C@@H](C)c2nc(-c3ccc(C#N)cc3)cs2)c1.[Cl-] (stereo partly drawn)
- solubility [1]: > 100000 µg/mL
- ED50 [6]: 0.9 µmol/kg
- ED50 [7]: 4 µmol/kg
- ED50 [8]: 4 µmol/kg
- ED50 [9]: 12 µmol/kg
- T1/2 [10]: Not detected
- T1/2 [11]: Not detected
- ED50 [12]: 8.9 µM/kg
- ED50 ([12]; Rattus norvegicus, po, read-out: ED50): 9.9 µmol/kg
- ED50 [13]: 0.8 µmol/kg
- half-life [2]: < 1 min
- ED50 [14]: 6.8 µM/kg
- ED50 ([14]; Rattus norvegicus, iv, read-out: ED50): 6 µmol/kg
- T1/2 [15]: Not detected
- half-life [3]: < 1 min
- ED50 [16]: 2.6 µmol/kg
- ED50 [17]: 14 µmol/kg
- ED50 [18]: 1.5 µmol/kg
- half-life [5]: < 1 min

SMILES: CNCC(=O)OCc1ccc(Cl)cc1N(C)C(=O)OC(C)[n+]1cnn(C[C@](O)(c2cc(F)ccc2F)[C@@H](C)c2nc(-c3ccc(C#N)cc3)cs2)c1.[Cl-] (stereo partly drawn)
- solubility [1]: > 10000 µg/mL
- T1/2 [2]: 4 min
- half-life [2]: 3 min
- half-life [3]: < 2 min
- T1/2 [4]: 4 min
- T1/2 [5]: 2 min and 5 min

SMILES: CCC(C)n1ncn(-c2ccc(N3CCN(c4ccc(OCC5COC(Cn6cncn6)(c6ccc(Cl)cc6Cl)O5)cc4)CC3)cc2)c1=O (stereo not drawn) [ITRACONAZOLE]
- ED50 [8]: 4.7 µmol/kg
- ED50 [12]: 7.2 µM/kg and 2.5 µM/kg
- ED50 [13]: 1.7 µmol/kg
- ED50 [16]: 1.7 µmol/kg
- ED50 [17]: 8.9 µmol/kg
